Results on one molecule are retold here after PMC10144566, “Pharmacokinetic Profile Evaluation of Novel Combretastatin Derivative, LASSBio-1920, as a Promising Colorectal Anticancer Agent” (Pharmaceutics, 2023).

Data set [1] relates to HPBMC, human peripheral blood mononuclear cells. Nature of the data set: MTT cytotoxicity assay, HPBMC. The class given is cell-based. Conditions: PBMC, 72 h incubation, read-out: IC50 (95% CI) HPBMC. As to the method:
Heparinized blood was collected from healthy, non-smoking donors who had not taken any drugs during the 15 days prior to sampling. Human peripheral blood mononuclear cells (HPBMC) were isolated by a standard density-gradient centrifugation method over Ficoll-Hypaque® media (Merck-Sigma-Aldrich, St. Louis, MO, USA). HPBMC were washed and resuspended in RPMI-1640 medium supplemented with 20% fetal bovine serum, 2 mM glutamine, 100 U/mL penicillin, and 100 µg/mL streptomycin at 37 °C with 5% CO2. Phytohemagglutinin (3%) was added at the beginning of the culture.
The cytotoxicity of the compounds was determined using the MTT assay. Cells were seeded in 96-well plates as follows: 0.7 × 10^5 cells/well for adherent cancer cells, 0.3 × 10^5 cells/well for suspended cancer cells, and 0.2 × 10^5 cells/well for HPBMCs. The treatments were dissolved in DMSO and added to each well using an automated liquid handler for high-throughput screening (Biomek 3000—Beckman Coulter, Inc., Fullerton, CA, USA) and incubated for either 24, 48, and 72 h. The control group was treated with the vehicle. […] After incubation, the supernatant was decanted and replaced with fresh medium containing MTT (0.5 mg/mL). Three hours later, the MTT’s formazan product was dissolved in 150 µL of pure DMSO, and absorbance was measured at 595 nm (DTX 880 Multimode Detector, Beckman Coulter, Inc., Pasadena, CA, USA).
Data were presented as mean ± standard error of the mean (SEM) from three independent experiments performed in triplicate, calculated using Prism 8.0 (GraphPad/Intuitive Software for Science, San Diego, CA, USA). The IC50 of the compounds was obtained using a non-linear regression of the cytotoxicity curves.

A further data set is described as follows: PAMPA-GIT permeability. Type of data set: in vitro ADME. To be noted: PAMPA-GIT, 5 h, room temperature; read-out: Pe (Experimental).
In data set [2] the test system is human tumor cell lines (HCT-116, SF-295, PC-3, H-1975, PC-9, N-87). The experiment in a line: MTT cytotoxicity assay, panel of human tumor cell lines. Conditions: 72 h, read-out: IC50 values against all tumor cell lines.
Method: (§1) The cytotoxicity of the compounds was determined using the MTT assay [13]. Cells were seeded in 96-well plates as follows: 0.7 × 10^5 cells/well for adherent cancer cells, 0.3 × 10^5 cells/well for suspended cancer cells, and 0.2 × 10^5 cells/well for HPBMCs. […] The control group was treated with the vehicle. […] After incubation, the supernatant was decanted and replaced with fresh medium containing MTT (0.5 mg/mL).
For data set [3], the system named is H-1975, non-small cell lung adenocarcinoma. The experiment in a line: MTT cytotoxicity assay, H-1975. Conditions: Homo sapiens, NCI-H1975, 72 h, read-out: IC50 (95% CI) H-1975.
Method: as §1
In data set [4] the test system is PC-9, lung adenocarcinoma (overexpressed EGFR with L858R mutation). Nature of the data set: MTT cytotoxicity assay, PC-9. To be noted: for IC50: Homo sapiens.
Method: as §1
Data set [5] is described as follows: In vitro plasma stability. The class given is in vitro ADME. Conditions: rat plasma, 37 °C, 100 μM. As for the experimental part: The in vitro stability of the test compounds was studied in rat plasma. Blood from different Wistar rats was centrifuged with heparin at 20 °C for 15 min at 2000 rpm to separate the plasma, which was diluted to 80% with 0.05 M phosphate-buffered saline (PBS, pH 7.4) at 37 °C [23]. The test compounds were added to 200 µL of preheated plasma solution to yield a final concentration of 100 μM. The final concentration of DMSO in the incubation mixture was 0.5%. The assays were performed with agitation in a water bath at 37 °C and conducted in triplicate. Samples were taken at 0, 30, 60, and 240 min. After each sampling time, 500 µL of cold methanol was added to the mixture immediately, followed by 500 µL of cold acetonitrile. The samples were mixed and centrifuged at room temperature for 15 min at 13,000 rpm. The supernatant was analyzed by HPLC (acetonitrile/water, 7:3, with 0.1% trifluoroacetic acid) using an internal standard (4-acetylbiphenyl—final concentration of 20 µM).

The nature of another data set: PAMPA-BBB permeability. Type of data set: in vitro ADME. Conditions: for Papp: PAMPA.

Entries after “also recorded” stand apart in the source; their conditions may differ. Read-outs that look alike come from different tables or passages of the source. Where only a bound is given, the exact number is not on record here.

Method for PAMPA-BBB permeability: (§2) For this, two 96-well plates were placed one above the other, and between them, an artificial hydrophobic polyvinylidene fluoride (PVDF) membrane, which was impregnated with a lipid solution. The top plate works as the donor compartment and the bottom one as the receiver compartment.
Parallel artificial membrane permeation assay for the blood–brain barrier (PAMPA-BBB): It was performed according to the previously reported [26] method established by Lu and coworkers [27].
From the text for PAMPA-GIT permeability: as §2
Parallel artificial membrane permeation assay for gastrointestinal tract (GIT-PAMPA): 1% (w/v) phosphatidylcholine was mixed with dodecane as a lipid solution to impregnate the PVDF membrane between the donor and receiver plates to stimulate intestinal permeability. […] A total of 180 µL of the mixture of PBS and DMSO (v/v 95:5) was added to the recipient plate, and 180 µL of the test solution was added to the donor plate. Immediately and carefully, the donor plate was placed above the receiver plate and incubated for 5 h at room temperature. The solution captured on the receptor plate was removed and subsequently analyzed by a UV detector (SpectraMax 5®—Molecular Devices, Sao Jose, CA, USA). The experiments were performed in quadruplicate.

Consider `COc1cc(C(=O)N/N=C/c2cc3ccccc3s2)cc(OC)c1OC` [LASSBio-1920, (E)-N′-(Benzo[b]thiophen-2-ylmethylene)-3,4,5-trimethoxybenzohydrazide], for which the IC50 in data set [1] was 0.14 µM; in data set [2], 0.06 to 1.68 µM; in data set [3] it was 0.21 µM; in data set [4] (24 h, read-out: IC50 (95% CI) PC-9 24 h), 78.8 µM; in data set [4] (48 h, read-out: IC50 (95% CI) PC-9 48 h) it was 1.01 µM; in data set [4] (72 h, read-out: IC50 (95% CI) PC-9 72 h), 0.07 µM. The Papp at 5 h, 0.5 mM in “PAMPA-GIT permeability” worked out at 6.6 ×10⁻⁶ cm/s. Also, the “SI HPBMC/PC-9” value in data set [4] (IC50 for HPBMC/IC50 for the tumor cell line, 72 h) is given as 2. For the same molecule, in data set [5], the plasma stability result is given as “stable at all time points of the assay; also recorded: not metabolized by plasma esterases, exhibiting substantial stability; also recorded: has plasma stability”. The Papp is more than 3.47 ×10⁻⁶ cm/s in “PAMPA-BBB permeability” (PAMPA-BBB classification: absorbed by the Central Nervous System, read-out: CNS Permeability) and 11.5 ×10⁻⁶ cm/s in the data set “PAMPA-BBB permeability” (PAMPA-BBB, mean, read-out: Pe (Experimental Mean)). The “Pe (Experimental Mean)” value in “PAMPA-BBB permeability” (PAMPA-BBB, mean) is 11.48 10–6 cm/s. For the same molecule, the “Pe1 (Experimental)” value in “PAMPA-BBB permeability” (PAMPA-BBB, replicate 1) was 12.43 10–6 cm/s. Also, in “PAMPA-BBB permeability” (PAMPA-BBB, replicate 2), the “Pe2 (Experimental)” value is 10.53 10–6 cm/s.
